According to PubChem BioAssay AID1996:
Values after ≈ are worked out from the molar mass of the structure shown.

settings: buffer; pH 7.4; 200.0 µM

| SMILES | solubility kinetic [µg/mL] |
| --- | --- |
| Cc1cc(C(=O)CN2C(=O)NC3(CCC(C)CC3)C2=O)c(C)n1C (stereo not given) | 13.3 (≈ 40.1 µM) |
| CCc1noc(C)c1C(=O)Nc1nc2c(C)cccc2s1 | 8.6 (≈ 28.5 µM) |
| Cc1cccc(OCCCn2c(CO)nc3ccccc32)c1 | > 44.5 |
| CCn1c(=S)[nH]c2sc3c(c2c1=O)CCCC3 | 9.2 (≈ 34.5 µM) |
| Cn1cnc(S(=O)(=O)Nc2ccccc2C(=O)NCC2CC2)c1 | > 50.2 |
| O=C(N/N=C/c1ccccc1Cl)C1CC1 | > 33.4 |
| CCOC(=O)C1=C(CC)Nc2ccccc2N=C1NC(=O)c1cc(S(=O)(=O)N2CCOCC2)ccc1C | 50.8 (≈ 96.5 µM) |
| CC1CC(C)CN(C(=O)COC(=O)c2ccc(S(=O)(=O)N(C)c3ccccc3)cc2)C1 (stereo not given) | 7.8 (≈ 17.5 µM) |
| Cl.OC(CNCc1cccnc1)COc1ccc2ccccc2c1 (stereo not given) | 43.5 |
| Cc1ccc2c(c1)C(=C(C#N)C#N)C(=O)N2CCN1CCOCC1 | 48.3 (≈ 150 µM) |
| Cc1nn(CC(=O)NC2CCCC2)c(C)c1[N+](=O)[O-] | > 39.9 |
| CCOc1ccc(-n2cnc3sc4c(c3c2=O)CCCC4)cc1 | 0.8 (≈ 2.45 µM) |
| C=CCn1cc(Cl)cc(C(=O)Nc2ccccc2)c1=O | 6.9 (≈ 23.9 µM) |
| Cc1ccc(C)c(S(=O)(=O)N2CCNCC2)c1 | > 38.2 |
| COc1ccc(CC(=S)NCCc2ccccc2)cc1 | 13 (≈ 45.5 µM) |
| CNn1cnc2ccsc2c1=O | > 27.2 |
| Cc1csc(SCC(=O)Nc2ccccc2C)n1 | > 41.8 |
| O=C(CSc1cccc[n+]1[O-])C12CC3CC(CC(C3)C1)C2 | > 45.5 |
| CSc1ccccc1C(=O)N1CCCCC1 | > 35.3 |
| C=CCN=C1S/C(=C\c2ccc(Cl)cc2)C(=O)N1CC=C | 2 (≈ 6.27 µM) |

| SMILES | solubility kinetic [µg/mL] |
| --- | --- |
| CC1(C)C(C(=O)O)N2C(=O)C(NC(=O)Cc3ccccc3)C2S1=O.O (stereo not given) | 38.7 |
| CC1=NOC(=O)/C1=C\c1ccc(-c2ccc(Cl)c(C(=O)O)c2)o1 | > 49.8 |
| CC(=O)c1c(C)nc2ccc([N+](=O)[O-])cc2c1-c1ccccc1 | 21.9 (≈ 71.5 µM) |
| COc1ccccc1NC(=O)NC1CCS(=O)(=O)C1 (stereo not given) | > 42.6 |
| COC(=O)c1c(-c2ccccc2)noc1C | 18.1 (≈ 83.3 µM) |
| CC1(C2CC2)NC(=O)N(CC(=O)N2CCN(c3cccc(C(F)(F)F)c3)CC2)C1=O (stereo not given) | 21.6 (≈ 50.9 µM) |
| Cc1ccc(C(=O)C[n+]2cccc3cc(C)ccc32)cc1.[Br-] | 43.8 |
| Cc1cccc(CNCCc2c[nH]c3ccccc23)c1.O=C(O)C(=O)O | > 53.2 |
| O=C(/C=C/c1cccc(Br)c1)NCc1ccncc1 | 37.2 (≈ 117 µM) |
| O=C(COc1ccccc1Br)Nc1ccc2c(c1)OCCCO2 | 1.6 (≈ 4.23 µM) |
| CCC(CC)C(=O)NCc1ccc(OC)cc1 | 32.7 (≈ 139 µM) |
| Cc1ccc(NC(=O)NCc2cccnc2)cc1 | > 36.2 |
| O=S(=O)(c1cnc(Cl)c(Cl)c1)N1CCN(c2ncccn2)CC1 | 0.4 (≈ 1.07 µM) |
| O=C(Nc1ncccn1)c1cccc(Cl)c1 | 23.6 (≈ 101 µM) |
| COC(=O)c1ccccc1NC(=O)c1cc[n+](C)cc1 | 26.8 |
| COC(=O)c1cccc(-n2c(CCC(=O)O)ccc2-c2cccs2)c1 | > 53.3 |
| O=C(NCCc1ccccc1)c1c(O)c2ccccc2[nH]c1=O | < 0.3 |
| Cc1ccc2nc(C(F)C(F)(F)F)[nH]c2c1 (stereo not given) | > 34.8 |
| CCc1ccc(NS(=O)(=O)c2ccc3oc(=O)ccc3c2)cc1 | 41.2 (≈ 125 µM) |
| Cc1sc2ncnc(SCC(=O)N(C(C)C)C(C)C)c2c1C | 1.6 (≈ 4.74 µM) |

| SMILES | solubility kinetic [µg/mL] |
| --- | --- |
| COc1ccccc1CCn1cc(C#N)c(=O)[nH]c1=O | > 40.7 |
| CCOC(=O)N1CCN(Cc2cc(Cl)c3cccnc3c2O)CC1 | > 52.5 |
| CCNCCNc1ccc([N+](=O)[O-])c2cccnc12 | 36.4 (≈ 140 µM) |
| O=C1NC2(CCCCC2)C(=O)N1Cc1cccc(C(F)(F)F)c1 | 8.4 (≈ 25.7 µM) |
| COc1ccccc1Oc1ncnc2sccc12 | > 38.7 |
| Cc1ccccc1C(=O)O/N=C(\N)Cc1cccs1 | > 41.2 |
| O=[N+]([O-])c1cccc2c(Cl)ccnc12 | > 31.3 |
| O=c1[nH]c(=S)n(Cc2ccc(F)cc2)c(O)c1C=NCc1ccc2c(c1)OCO2 | 0.4 (≈ 0.968 µM) |
| CCC(C)c1ccc(NC(=O)COC(=O)C2CCCC2)cc1 (stereo not given) | 8.8 (≈ 29 µM) |
| Cc1sc2nc(COC(=O)c3c(F)cccc3F)[nH]c(=O)c2c1C | 4.2 (≈ 12 µM) |
| COc1cc(/C=C/C(=O)OCC(=O)NC(=O)C2COc3ccccc3O2)ccc1OC(F)F (stereo not given) | 15.4 (≈ 33.2 µM) |
| COc1cccc(CNC(=O)c2ccncc2)c1 | 36.3 (≈ 150 µM) |
| COc1cccc(NC(=O)c2ccc3nsnc3c2)c1 | 24.5 (≈ 85.9 µM) |
| Fc1ccc(NC(=S)Nc2cccnc2)c(F)c1F | > 42.5 |
| Cl.NCc1ccccc1 | > 21.5 |
| O=C(NCCc1ccc(Cl)cc1)c1ccc2c(c1)OCCO2 | 0.8 (≈ 2.52 µM) |
| O=C1CN(C(=O)COc2c(F)c(F)cc(F)c2F)c2ccccc2N1 | 44.4 (≈ 125 µM) |
| Clc1ccc(-c2nc(-c3cnccn3)no2)cc1 | 3.2 (≈ 12.4 µM) |
| O=C(CCN1C(=O)c2ccccc2S1(=O)=O)Nc1ccc(Cl)cc1 | 0.9 (≈ 2.47 µM) |
| O=[N+]([O-])/C(C(=C(Cl)Cl)N1CCOCC1)=C1\NCCO1 | > 46.5 |
